In ChEMBL document CHEMBL4000188, “Synthesis and antimicrobial evaluation of novel analogues of dehydroabietic acid prepared by CH-Activation” (Eur J Med Chem, 2017):
Values after ≈ are worked out from the molar mass of the structure shown. Active and inactive are the calls of the source. No cut-off for these calls is given here.

Assays:
[1] = Solubility of the compound in DMSO; type: physicochemical
Staphylococcus aureus [2] = assay: Anti-bacterial activity against methicillin/oxacillin-resistant Staphylococcus aureus ATCC 43300 at 32 ug/ml measured after 18 hrs; type: functional
Staphylococcus aureus [3] = assay: Anti-bacterial activity against methicillin-resistant Staphylococcus aureus ATCC 43300 measured after 18 hrs; type: functional; conditions: ATCC 43300, 18 h

Compound | solubility [1] | Activity (Staphylococcus aureus [2]) | other results
CC(C)c1ccc2c(c1)CC[C@H]1[C@](Cc3ccc(C(F)(F)F)cc3)(C(N)=O)CCC[C@]21C | Insoluble | – | –
COc1ccc(C[C@@]2(C(N)=O)CCC[C@]3(C)c4ccc(C(C)C)cc4CC[C@@H]23)cc1 | Insoluble | – | –
CC(C)c1ccc2c(c1)CC[C@H]1[C@](Cc3ccc(C(F)(F)F)cc3)(C(=O)O)CCC[C@]21C | – | Active | –
CN[C@H](CC(C)C)C(=O)N[C@H]1C(=O)N[C@@H](CC(N)=O)C(=O)N[C@H]2C(=O)N[C@H]3C(=O)N[C@H](C(=O)N[C@H](C(=O)O)c4cc(O)cc(O)c4-c4cc3ccc4O)[C@H](O)c3ccc(c(Cl)c3)Oc3cc2cc(c3O[C@@H]2O[C@H](CO)[C@@H](O)[C@H](O)[C@H]2O[C@H]2C[C@](C)(N)[C@H](O)[C@H](C)O2)Oc2ccc(cc2Cl)[C@H]1O [VANCOMYCIN] | – | – | MIC80 (Staphylococcus aureus [3]): 1 µg/mL (≈ 0.69 µM)
COc1ccc(C[C@@]2(C(=O)O)CCC[C@]3(C)c4ccc(C(C)C)cc4CC[C@@H]23)cc1 | – | Active | –
Cc1ccc(C[C@@]2(C(=O)O)CCC[C@]3(C)c4ccc(C(C)C)cc4CC[C@@H]23)cc1 | – | Active | –
CC(C)c1ccc2c(c1)CC[C@H]1[C@](Cc3ccc(C(=O)O)cc3)(C(N)=O)CCC[C@]21C | – | – | MIC80 (Staphylococcus aureus [3]): 32 µg/mL (≈ 76.3 µM)
Cc1ccc(C[C@@]2(C(N)=O)CCC[C@]3(C)c4ccc(C(C)C)cc4CC[C@@H]23)cc1 | Insoluble | – | –
